Measured values: patent publication US8802700B2 (Vertex Pharmaceuticals Incorporated, priority 2010, dated 2014)

These molecules were tested against T1, ΔF508-CFTR (Homo sapiens, UniProt P13569, DEL508-508) (assay: Membrane potential optical assay (FRET voltage-sensor dyes, VIPR), identification of potentiator compounds). Conditions: Table 3; assay not given.
T1 construct: expressed in transfected cells
T1 sequence (P13569 with tags, fused parts or gaps DEL508-508): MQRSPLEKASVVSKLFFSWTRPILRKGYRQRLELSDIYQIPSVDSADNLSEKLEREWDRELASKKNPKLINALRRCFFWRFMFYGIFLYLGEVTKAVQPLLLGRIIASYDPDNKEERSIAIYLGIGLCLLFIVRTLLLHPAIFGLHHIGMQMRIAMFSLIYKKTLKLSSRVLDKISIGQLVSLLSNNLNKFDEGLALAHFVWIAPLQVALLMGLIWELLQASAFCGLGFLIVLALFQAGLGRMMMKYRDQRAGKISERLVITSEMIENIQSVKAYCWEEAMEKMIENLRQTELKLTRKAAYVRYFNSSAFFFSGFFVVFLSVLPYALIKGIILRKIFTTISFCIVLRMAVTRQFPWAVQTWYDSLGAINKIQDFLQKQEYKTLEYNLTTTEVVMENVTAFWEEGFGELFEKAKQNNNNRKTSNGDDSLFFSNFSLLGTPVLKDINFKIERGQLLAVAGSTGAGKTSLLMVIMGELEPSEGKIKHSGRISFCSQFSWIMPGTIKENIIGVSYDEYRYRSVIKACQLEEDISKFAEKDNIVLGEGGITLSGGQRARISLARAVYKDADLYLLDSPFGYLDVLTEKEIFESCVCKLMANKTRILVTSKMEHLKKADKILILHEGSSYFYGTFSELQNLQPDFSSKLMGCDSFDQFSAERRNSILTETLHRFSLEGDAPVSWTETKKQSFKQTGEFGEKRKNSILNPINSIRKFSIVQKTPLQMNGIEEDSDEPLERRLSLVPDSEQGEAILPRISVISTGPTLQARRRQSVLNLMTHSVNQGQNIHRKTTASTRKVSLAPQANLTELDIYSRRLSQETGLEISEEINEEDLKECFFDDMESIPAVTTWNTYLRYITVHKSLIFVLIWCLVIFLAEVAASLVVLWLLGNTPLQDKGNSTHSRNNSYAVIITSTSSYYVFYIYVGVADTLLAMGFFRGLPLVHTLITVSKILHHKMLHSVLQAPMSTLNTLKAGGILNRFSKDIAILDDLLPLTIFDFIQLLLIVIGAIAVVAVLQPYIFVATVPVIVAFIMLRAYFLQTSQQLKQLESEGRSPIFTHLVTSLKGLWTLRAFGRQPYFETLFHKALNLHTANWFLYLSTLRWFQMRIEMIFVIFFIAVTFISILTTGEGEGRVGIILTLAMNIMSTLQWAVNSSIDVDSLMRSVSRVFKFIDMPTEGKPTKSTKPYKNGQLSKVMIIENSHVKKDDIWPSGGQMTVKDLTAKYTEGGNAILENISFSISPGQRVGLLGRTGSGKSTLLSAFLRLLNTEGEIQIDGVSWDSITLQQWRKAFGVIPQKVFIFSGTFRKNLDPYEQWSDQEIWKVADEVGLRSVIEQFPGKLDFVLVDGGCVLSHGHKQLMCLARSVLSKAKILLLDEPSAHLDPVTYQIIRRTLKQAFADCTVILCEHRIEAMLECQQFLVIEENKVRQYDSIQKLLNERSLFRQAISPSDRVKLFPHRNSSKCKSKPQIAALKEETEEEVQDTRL
Assay type: cell-based
Procedure, shortened: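 Potentiator screen measured membrane potential via FRET between CC2-DMPE donor and DiSBAC2(3), read on VIPR II. Compound went in with the first addition of chloride-free gluconate bath; cells were ΔF508-CFTR-expressing NIH3T3 mouse fibroblasts, temperature-corrected at 27 °C for 24 h.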
For `CCOC(=O)Nc1ccc(CC)c(NC(=O)c2c[nH]c3ccccc3c2=O)c1` [Compound 472, [4-ethyl-3-[(4-oxo-1H-quinolin-3-yl)carbonylamino]phenyl]aminoformic acid ethyl ester], the EC50 was less than 10 µM.
`N#CCc1ccc(-c2ccccc2NC(=O)c2c[nH]c3ccccc3c2=O)cc1` [Compound 333, N-[2-[4-(cyanomethyl)phenyl]phenyl]-4-oxo-1H-quinoline-3-carboxamide] was tested, and the EC50 was less than 10 µM.
In the case of `O=C(Nc1ccccc1-c1ccc(Cl)cc1Cl)c1c[nH]c2ccccc2c1=O` [Compound 139, N-[2-(2,4-dichlorophenyl)phenyl]-4-oxo-1H-quinoline-3-carboxamide], the EC50 is reported as less than 10 µM.

Same assay, conditions: Table 3; assay not given; read-out: % Activity (% Efficacy, relative efficacy)
Molecule `Cc1cccc2[nH]cc(C(=O)Nc3ccc(OC(C)C)cc3C(F)(F)F)c(=O)c12` [Compound 547, N-[4-isopropoxy-2-(trifluoromethyl)phenyl]-5-methyl-4-oxo-1H-quinoline-3-carboxamide] has an Emax greater than 100%.
Molecule `CCOC(=O)Nc1ccc(CC)c(NC(=O)c2c[nH]c3ccccc3c2=O)c1` [Compound 472, [4-ethyl-3-[(4-oxo-1H-quinolin-3-yl)carbonylamino]phenyl]aminoformic acid ethyl ester] has an Emax of 25 to 100%.
`N#CCc1ccc(-c2ccccc2NC(=O)c2c[nH]c3ccccc3c2=O)cc1` [Compound 333, N-[2-[4-(cyanomethyl)phenyl]phenyl]-4-oxo-1H-quinoline-3-carboxamide] gave an Emax of 25 to 100%.
`O=C(Nc1ccncc1)c1c[nH]c2ccccc2c1=O` [Compound 53, 4-oxo-N-(4-pyridyl)-1H-quinoline-3-carboxamide] showed an Emax of less than 25%.
Work on `CNc1cc(NC(=O)c2c[nH]c3ccccc3c2=O)ccc1C(C)(C)C` [Compound 484, N-(3-methylamino-4-tert-butyl-phenyl)-4-oxo-1H-quinoline-3-carboxamide] yielded an Emax of 25 to 100%.
Molecule `CC(C)(C)c1ccc(NC(=O)c2c[nH]c3ccc(F)cc3c2=O)cc1F` [Compound 527, 6-fluoro-N-(3-fluoro-4-tert-butyl-phenyl)-4-oxo-1H-quinoline-3-carboxamide] has an Emax of 25 to 100%.
`CC(C)c1ccc(NC(=O)c2c[nH]c3ccccc3c2=O)cc1N` [Compound 69, N-(3-amino-4-isopropyl-phenyl)-4-oxo-1H-quinoline-3-carboxamide] was tested, and the Emax was 25 to 100%.
In the case of `Cc1cccc2[nH]cc(C(=O)Nc3ccc(N4CCC(F)(F)C4)cc3C(F)(F)F)c(=O)c12` [Compound 528, N-[4-(3,3-difluoropyrrolidin-1-yl)-2-(trifluoromethyl)phenyl]-5-methyl-4-oxo-1H-quinoline-3-carboxamide], the Emax is reported as 25 to 100%.
Work on `O=C(Nc1ccc(CO)cc1)c1c[nH]c2ccccc2c1=O` [Compound 209, N-[4-(hydroxymethyl)phenyl]-4-oxo-1H-quinoline-3-carboxamide] yielded an Emax of 25 to 100%.
`CC(C)(C)c1cc(C(C)(C)C)c(NC(=O)c2c[nH]c3cc(O)ccc3c2=O)cc1O` [Compound 652, 7-hydroxy-N-(5-hydroxy-2,4-ditert-butyl-phenyl)-4-oxo-1H-quinoline-3-carboxamide] gave an Emax of 25 to 100%.
Molecule `CCOc1ccccc1-c1ccc(CNC(=O)OC(C)(C)C)cc1NC(=O)c1c[nH]c2ccccc2c1=O` [Compound 304, {2′-Ethoxy-2-[(4-oxo-1,4-dihydroquinoline-3-carbonyl)-amino]-biphenyl-4-ylmethyl}-carbamic acid tert-butyl ester] has an Emax of 25 to 100%.
`CCc1cccc2c(=O)c(C(=O)Nc3cc(O)c(C(C)(C)C)cc3F)c[nH]c12` [Compound 605, 8-ethyl-N-(2-fluoro-5-hydroxy-4-tert-butyl-phenyl)-4-oxo-1H-quinoline-3-carboxamide] gave an Emax of less than 25%.
Work on `O=C(Nc1ccccc1-c1ccc(Cl)cc1Cl)c1c[nH]c2ccccc2c1=O` [Compound 139, N-[2-(2,4-dichlorophenyl)phenyl]-4-oxo-1H-quinoline-3-carboxamide] yielded an Emax of 25 to 100%.
`CC(C)CNC(=O)c1cc2cc[nH]c2cc1NC(=O)c1c[nH]c2ccccc2c1=O` [Compound 343, N-[5-(Isobutylcarbamoyl)-1H-indol-6-yl]-4-oxo-1H-quinoline-3-carboxamide] gave an Emax of 25 to 100%.
For `Cc1cccc(C)c1NC(=O)c1c[nH]c2ccccc2c1=O` [Compound 315, N-(2,6-dimethylphenyl)-4-oxo-1H-quinoline-3-carboxamide], the Emax was 25 to 100%.
Molecule `CC1(c2cc(F)c(NC(=O)c3c[nH]c4ccccc4c3=O)cc2O)CCCCC1` [Compound 92, N-[2-fluoro-5-hydroxy-4-(1-methylcyclohexyl)-phenyl]-4-oxo-1H-quinoline-3-carboxamide] has an Emax of 25 to 100%.
`Cc1cccc2c(=O)c(C(=O)Nc3cc4[nH]ccc4cc3C(C)(C)C)c[nH]c12` [Compound 644, 8-methyl-4-oxo-N-(5-tert-butyl-1H-indol-6-yl)-1H-quinoline-3-carboxamide] showed an Emax of less than 25%.
In the case of `Cc1ccccc1Oc1ccccc1NC(=O)c1c[nH]c2ccccc2c1=O` [Compound 20, N-[2-(2-methylphenoxy)phenyl]-4-oxo-1H-quinoline-3-carboxamide], the Emax is reported as 25 to 100%.
`CCc1ccc(NC(=O)OC)cc1NC(=O)c1c[nH]c2ccccc2c1=O` [Compound 249, [4-ethyl-3-[(4-oxo-1H-quinolin-3-yl)carbonylamino]phenyl]aminoformic acid methyl ester] gave an Emax of 25 to 100%.
In the case of `O=C(Nc1ccc(C(F)(F)F)cc1N1CCCCC1)c1c[nH]c2ccccc2c1=O` [Compound 514, 4-oxo-N-[2-(1-piperidyl)-4-(trifluoromethyl)phenyl]-1H-quinoline-3-carboxamide], the Emax is reported as 25 to 100%.
Work on `O=C(Nc1ccc2cc[nH]c2c1)c1cnc2ccc(Cl)cc2c1O` [Compound 358, 6-chloro-4-hydroxy-N-(1H-indol-6-yl)quinoline-3-carboxamide] yielded an Emax of 25 to 100%.
Molecule `Cc1cc(C(C)(C)C)c(O)cc1NC(=O)c1c[nH]c2cccc(O)c2c1=O` [Compound 588, 5-hydroxy-N-(5-hydroxy-2-methyl-4-tert-butyl-phenyl)-4-oxo-1H-quinoline-3-carboxamide] has an Emax of 25 to 100%.
Molecule `O=C(Nc1cc(Cl)ccc1F)c1c[nH]c2ccccc2c1=O` [Compound 48, N-(5-chloro-2-fluoro-phenyl)-4-oxo-1H-quinoline-3-carboxamide] has an Emax of 25 to 100%.
`CCC(CC)(c1cc(F)c(NC(=O)c2cnc3ccccc3c2O)cc1O)C(C)(C)C` [Compound 153, N-[4-(1,1-diethyl-2,2-dimethyl-propyl)-2-fluoro-5-hydroxy-phenyl]-4-hydroxy-quinoline-3-carboxamide] showed an Emax of 25 to 100%.
`CCOc1ccc2[nH]cc(C(=O)Nc3cc(O)c(C(C)(C)C)cc3C(C)(C)C)c(=O)c2c1` [Compound 524, 6-ethoxy-N-(5-hydroxy-2,4-ditert-butyl-phenyl)-4-oxo-1H-quinoline-3-carboxamide] was tested, and the Emax was 25 to 100%.
For `CCOc1cc(NC(=O)c2c[nH]c3ccccc3c2=O)c(OCC)cc1NC(=O)c1ccccc1` [Compound 7, N-(4-benzoylamino-2,5-diethoxy-phenyl)-4-oxo-1H-quinoline-3-carboxamide], the Emax was less than 25%.
Work on `CC(C)(C)c1cc(C(C)(C)C)c(NC(=O)c2c[nH]c3cc(F)c(F)cc3c2=O)cc1O` [Compound 672, 6,7-difluoro-N-(5-hydroxy-2,4-ditert-butyl-phenyl)-4-oxo-1H-quinoline-3-carboxamide] yielded an Emax of 25 to 100%.
Molecule `CCc1cc2cc[nH]c2cc1NC(=O)c1c[nH]c2ccccc2c1=O` [Compound 351, N-(5-ethyl-1H-indol-6-yl)-4-oxo-1H-quinoline-3-carboxamide] has an Emax of 25 to 100%.
Molecule `N#Cc1c[nH]c2cc(NC(=O)c3c[nH]c4ccccc4c3=O)ccc12` [Compound 339, N-(3-cyano-1H-indol-6-yl)-4-oxo-1H-quinoline-3-carboxamide] has an Emax of 25 to 100%.
In the case of `CCC(CC)(CC)c1cc(F)c(NC(=O)c2cnc3ccccc3c2O)cc1O` [Compound 34, N-[4-(1,1-diethylpropyl)-2-fluoro-5-hydroxy-phenyl]-4-hydroxy-quinoline-3-carboxamide], the Emax is reported as 25 to 100%.
`CC(C)(C)c1cc(C(C)(C)C)c(NC(=O)c2c[nH]c3cccc(C(F)(F)F)c3c2=O)cc1O` [Compound 520, N-(5-hydroxy-2,4-ditert-butyl-phenyl)-4-oxo-5-(trifluoromethyl)-1H-quinoline-3-carboxamide] was tested, and the Emax was 25 to 100%.
